# Legend:
# C4-HI = details: concentrations lower than growth inhibitory ones; cited from earlier work
# [1] = tested on: prostate and ovarian cancer xenografts; details: 50 mg/kg/day; cited from earlier work
# [2] = tested on: primary cultures of responsive tumors; details: cited from earlier work
# [3] = tested on: primary cultures of responsive tumors; experiment: Primary cultures of responsive tumors of the MPA model; type: cell-based, mouse
# meningiomas = details: 200 mg/day for 2-31 months; after one year; cited from earlier work
# [4] = tested on: DMBA-induced mammary tumors; details: cited from earlier work
# T47D cells = details: cited from earlier work
# HI-responsive tumors = experiment: MPA breast cancer model, HI-responsive tumors in vivo; parameters: species or system mouse; details: 1 mg/kg/day
compound,measurement,setting,value
"CC#C[C@]1(O)CC[C@H]2[C@@H]3CCC4=CC(=O)CCC4=C3[C@@H](c3ccc(N(C)C)cc3)C[C@@]21C [RU-486, mifepristone]",tumor growth at low doses,C4-HI,stimulated C4-HI growth
same,xenograft growth,[1],inhibitory
same,MPA-induced or FGF2-induced cell proliferation,[2]; 1-100 nM,inhibited MPA-induced or FGF2-induced cell proliferation
same,cell proliferation at very low concentrations,[2]; 10-12 M,stimulate cell proliferation
same,ERK phosphorylation,[3],increased ERK phosphorylation
same,tumor response,meningiomas,Five out of thirteen tumors responded
same,tumor development,[4]; 10 mg/kg/day for 3 weeks,delayed tumor development
same,tumor growth,[4]; 10 mg/kg/day for 3 weeks,inhibited tumor growth
same,PR (and ER) expression,"[4]; rat, in vivo",induced down regulation of the PR
same,effects on T47D cells,T47D cells; 5% FCS,inhibitory effects
same,proliferation of T47D and MCF-7 cells,T47D cells; MIF at micromolar concentrations,stimulate the proliferation
same,E2-induced cell proliferation,"T47D cells; clone 11, ER- and PR-positive",specifically inhibit E2-induced cell proliferation
same,tumor growth,HI-responsive tumors,inhibitory effects
